Source: ChEMBL document CHEMBL5325421, “Discovery of novel sulfonamide chromone-oxime derivatives as potent indoleamine 2,3-dioxygenase 1 inhibitors” (Eur J Med Chem, 2023)

Key:
[1] = biological target: T1, Indoleamine 2,3-dioxygenase 1 (Homo sapiens, UniProt P14902); assay: Inhibition of human recombinant IDO1 measured after 60 mins by fluorescence based analysis
Target sequence in this assay (P14902 whole entry): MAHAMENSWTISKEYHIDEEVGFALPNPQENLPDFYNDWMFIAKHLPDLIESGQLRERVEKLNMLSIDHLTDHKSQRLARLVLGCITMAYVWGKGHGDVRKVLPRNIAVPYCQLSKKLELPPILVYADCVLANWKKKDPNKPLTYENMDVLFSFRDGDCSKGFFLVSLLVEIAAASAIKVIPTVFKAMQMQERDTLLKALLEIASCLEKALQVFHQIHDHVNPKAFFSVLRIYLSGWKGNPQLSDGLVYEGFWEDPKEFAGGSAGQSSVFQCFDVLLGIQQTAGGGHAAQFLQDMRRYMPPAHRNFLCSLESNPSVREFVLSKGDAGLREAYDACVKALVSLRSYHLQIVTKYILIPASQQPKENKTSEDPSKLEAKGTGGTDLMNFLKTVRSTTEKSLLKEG

[2] = biological target: T1, Indoleamine 2,3-dioxygenase 1; assay: Inhibition of IDO1 in IFN-gamma treated human HeLa cells incubated for 48 hrs by absorbance based analysis; format: cell-based
Target sequence in this assay (P14902 whole entry): as above

[3] = tested on: HCT-116; assay: cells; settings: Homo sapiens, HCT-116, 48 h
[4] = tested on: SW480; assay: cells; settings: Homo sapiens, SW480, 48 h
[5] = tested on: A549; assay: cells; settings: Homo sapiens, A549, 48 h
[6] = tested on: HeLa; assay: cells; settings: Homo sapiens, 48 h
[7] = tested on: CT26; assay: Antitumor activity against mouse CT26 cells xenografted in BALB/c mouse model assessed as relative tumor volume growth at 100 mg/kg measured every 3 days for 21 days by caliper method relative to control; format: functional; settings: time 21 day
[8] = tested on: CT26; assay: Antitumor activity against mouse CT26 cells xenografted in BALB/c mouse model assessed as reduction in tumor weight at 100 mg/kg measured every 3 days for 21 days by caliper method relative to control; format: functional; design: scale not given: the % may be the effect or the level left; settings: time 21 day
[9] = Toxicity in BALB/c mouse assessed as change in body weight at 100 mg/kg measured upto 22 days; format: organism-based; settings: in vivo, 528 h, time < 22 day
[10] = biological target: T1, Indoleamine 2,3-dioxygenase 1; assay: Binding affinity to human recombinant IDO1 assessed as dissociation constant measured for 60 sec by SPR assay; settings: dose 0.78-25 µM
Target sequence in this assay (P14902 whole entry, looked up): as the sequence (P14902 whole entry) above

[11] = tested on: CT26; assay: Antitumor activity against mouse CT26 cells xenografted in BALB/c mouse model assessed as relative tumor volume growth at 50 mg/kg measured every 3 days for 21 days by caliper method relative to control; format: functional; settings: time 21 day
[12] = tested on: CT26; assay: Antitumor activity against mouse CT26 cells xenografted in BALB/c mouse model assessed as reduction in tumor weight at 50 mg/kg measured every 3 days for 21 days by caliper method relative to control; format: functional; design: scale not given: the % may be the effect or the level left; settings: time 21 day
[13] = Toxicity in BALB/c mouse assessed as change in body weight at 50 to 100 mg/kg measured upto 22 days; format: organism-based; settings: in vivo, 528 h, dose 50-100 mg/kg, time < 22 day
[14] = Toxicity in BALB/c mouse assessed as pathological changes in heart at 50 to 100 mg/kg; format: organism-based; settings: in vivo, dose 50-100 mg/kg
[15] = Toxicity in BALB/c mouse assessed as pathological changes in liver at 50 to 100 mg/kg; format: organism-based; settings: in vivo, dose 50-100 mg/kg
[16] = Toxicity in BALB/c mouse assessed as pathological changes in spleen at 50 to 100 mg/kg; format: organism-based; settings: in vivo, dose 50-100 mg/kg
[17] = Toxicity in BALB/c mouse assessed as pathological changes in lungs at 50 to 100 mg/kg; format: organism-based; settings: in vivo, dose 50-100 mg/kg
[18] = Toxicity in BALB/c mouse assessed as pathological changes in kidney at 50 to 100 mg/kg; format: organism-based; settings: in vivo, dose 50-100 mg/kg
[19] = biological target: T1, Indoleamine 2,3-dioxygenase 1; assay: Binding affinity to human recombinant IDO1 heme iron assessed as shift in soret peak at 2 mM by UV-visible spectroscopic analysis (reference value: […])
Target sequence in this assay (P14902 whole entry, looked up): as the sequence (P14902 whole entry) above

[20] = biological target: T1, Indoleamine 2,3-dioxygenase 1; assay: Binding affinity to human recombinant IDO1 assessed as dissociation rate constant measured for 60 sec by SPR assay
Target sequence in this assay (P14902 whole entry): as above

Compound	IC50 [1]	IC50 [2]	IC50 [3]	IC50 [4]	IC50 [5]	IC50 [6]	further results
COc1ccc2/c(=N/O)cc(C(=O)N3CCN(S(=O)(=O)c4cccc([N+](=O)[O-])c4)CC3)oc2c1	1.95 µM	4.46 µM	19.4 µM	> 50 µM	> 50 µM	> 50 µM	–
COc1ccc2/c(=N/O)cc(C(=O)N3CCN(S(=O)(=O)c4ccc(Br)cc4)CC3)oc2c1	9.42 µM	> 10 µM	18.5 µM	> 50 µM	> 50 µM	> 50 µM	–
COc1ccc2/c(=N/O)cc(C(=O)N3CCN(S(=O)(=O)c4ccc(Cl)cc4)CC3)oc2c1	7.07 µM	7.78 µM	42 µM	11.6 µM	> 50 µM	> 50 µM	–
Nc1nonc1C(=NO)Nc1ccc(F)c(Cl)c1	–	–	–	–	–	–	Activity [7]: 26.05%; Activity [8]: 70.9%; Activity [9]: Non-Toxic
COc1ccc2/c(=N/O)cc(C(=O)N3CCN(S(=O)(=O)c4ccc(F)c(F)c4)CC3)oc2c1	0.64 µM	1.04 µM	> 50 µM	28.6 µM	> 50 µM	> 50 µM	Activity [10]: Dose-Dependent Effect; Activity [11]: 63.52%; Activity [7]: 38.01%; Activity [12]: 36.2%; Activity [8]: 60.4%; Activity [13]: Non-Toxic; Activity [14]: Non-Toxic; Activity [15]: Non-Toxic; Activity [16]: Non-Toxic; Activity [17]: Non-Toxic; Activity [18]: Non-Toxic; Activity [19]: 421 nm; koff [20]: 0.11 s⁻¹
NS(=O)(=O)NCCNc1nonc1/C(=N/O)Nc1ccc(F)c(Br)c1 [EPACADOSTAT]	–	–	> 50 µM	> 50 µM	> 50 µM	> 50 µM	–
COc1ccc2/c(=N/O)cc(C(=O)N3CCN(S(=O)(=O)c4ccccc4C(F)(F)F)CC3)oc2c1	8.85 µM	> 10 µM	> 50 µM	> 50 µM	> 50 µM	38 µM	–
COc1ccc(S(=O)(=O)N2CCN(C(=O)c3c/c(=N\O)c4ccc(C)cc4o3)CC2)cc1OC	6.23 µM	7.8 µM	> 50 µM	> 50 µM	> 50 µM	> 50 µM	–
Cc1ccc2/c(=N/O)cc(C(=O)N3CCN(S(=O)(=O)c4ccc(F)cc4)CC3)oc2c1	9.18 µM	9.29 µM	34.8 µM	31.2 µM	> 50 µM	> 50 µM	–
COc1ccc2/c(=N/O)cc(C(=O)N3CCN(S(=O)(=O)c4cccc(Br)c4)CC3)oc2c1	6.14 µM	9.81 µM	> 50 µM	> 50 µM	> 50 µM	44.8 µM	–
COc1ccc2/c(=N/O)cc(C(=O)N3CCN(S(=O)(=O)c4ccccc4Cl)CC3)oc2c1	> 10 µM	> 10 µM	> 50 µM	> 50 µM	> 50 µM	> 50 µM	–
COc1ccc2/c(=N/O)cc(C(=O)N3CCN(S(=O)(=O)c4ccc(C(F)(F)F)cc4)CC3)oc2c1	2.69 µM	6.37 µM	> 50 µM	> 50 µM	> 50 µM	> 50 µM	–
COc1ccc2/c(=N/O)cc(C(=O)N3CCN(S(=O)(=O)c4ccc(Cl)c(Cl)c4)CC3)oc2c1	3.73 µM	7.61 µM	> 50 µM	> 50 µM	> 50 µM	> 50 µM	–
